{"source": "patent US20150216978A1", "about": "“MODULATORS OF DRUGS USING CARBOXYLESTERASE SELECTIVE INHIBITORS” (Rhode Island Board of Education, State of Rhode Island and …, priority 2013, published 2015)", "key": {"[1]": {"molecular_target": "T1, CES2 (Homo sapiens, UniProt O00748)", "T1 sequence (O00748 27-559)": "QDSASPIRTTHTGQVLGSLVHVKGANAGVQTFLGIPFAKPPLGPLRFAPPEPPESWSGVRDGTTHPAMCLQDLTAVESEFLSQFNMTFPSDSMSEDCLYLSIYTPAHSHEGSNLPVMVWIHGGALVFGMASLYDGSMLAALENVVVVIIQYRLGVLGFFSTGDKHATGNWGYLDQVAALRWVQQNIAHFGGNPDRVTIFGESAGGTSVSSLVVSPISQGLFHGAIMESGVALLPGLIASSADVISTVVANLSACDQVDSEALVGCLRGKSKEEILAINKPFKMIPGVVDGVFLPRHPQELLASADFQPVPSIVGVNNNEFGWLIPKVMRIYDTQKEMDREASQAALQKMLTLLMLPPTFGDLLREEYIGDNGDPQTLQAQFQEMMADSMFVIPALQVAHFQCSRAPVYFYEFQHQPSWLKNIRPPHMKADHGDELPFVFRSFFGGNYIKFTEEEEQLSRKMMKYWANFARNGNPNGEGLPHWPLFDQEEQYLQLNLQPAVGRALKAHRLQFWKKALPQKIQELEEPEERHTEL", "assay": "Inhibition of carboxylesterases by Orlistat (human CES2)", "type": "biochemical", "conditions": "Orlistat at 1 nM", "excerpt": "(§1) For a decade, Orlistat has been the most used anti-obesity drug. However, the use of Orlistat has been associated with fatal liver and kidney toxicity. This type of toxicity is rare, pointing to a compound effect of multiple factors. Specifically, we assumed that orlistat alters the activity of detoxification enzymes, which may have fatal effects when these factors are perfectly aligned. To shed light on this possibility, we tested Orlistat for the inhibition of carboxylesterases, a class of hydrolytic enzymes with known detoxication significance. […] Orlistat at 1 nM inhibited CES2 by 75%, but no inhibition was detected with CES1. […] In a striking contrast, rat ces1d and ces1e, two major forms of liver CESs, were resistant to Orlistat (Biochem Pharmacol. 2013, 85:439-447)."}, "[2]": {"molecular_target": "T2, CES1 (Homo sapiens, UniProt P23141)", "T2 sequence (P23141 18-567)": "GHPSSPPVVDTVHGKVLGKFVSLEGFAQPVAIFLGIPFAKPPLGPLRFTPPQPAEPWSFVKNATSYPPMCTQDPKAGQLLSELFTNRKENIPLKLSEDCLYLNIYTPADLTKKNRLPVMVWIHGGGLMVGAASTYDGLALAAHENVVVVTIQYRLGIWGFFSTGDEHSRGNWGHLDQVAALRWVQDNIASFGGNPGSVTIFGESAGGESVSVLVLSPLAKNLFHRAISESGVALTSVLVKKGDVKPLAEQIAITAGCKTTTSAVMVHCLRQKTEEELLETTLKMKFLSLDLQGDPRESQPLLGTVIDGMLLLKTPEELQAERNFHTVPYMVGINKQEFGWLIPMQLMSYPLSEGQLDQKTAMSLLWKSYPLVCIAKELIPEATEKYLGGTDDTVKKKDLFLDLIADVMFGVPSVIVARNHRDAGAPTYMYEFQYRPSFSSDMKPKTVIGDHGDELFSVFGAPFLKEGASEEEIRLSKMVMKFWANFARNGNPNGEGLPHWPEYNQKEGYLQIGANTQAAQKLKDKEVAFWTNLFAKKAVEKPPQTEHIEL", "assay": "Inhibition of carboxylesterases by Orlistat (human CES1)", "type": "biochemical", "excerpt": "as §1"}, "[3]": {"system": "cells", "assay": "Cell viability of cells treated with PPD in the presence or absence of Orlistat", "type": "cell-based", "experimental": "To shed light on the clinical consequences of inhibited CES2 by Orlistat, cells were treated with PPD in the presence or absence of Orlistat. PPD is a carbamate anticancer prodrug and activated preferentially by CES2 hydrolysis of the ester side chain of the carbamate (20, 21). […] This finding was confirmed in CES2 induced condition (Brit J Pharmacol. 2013, 168:1989-1999)."}, "[4]": {"molecular_target": "T3, mouse ces2c (Mus musculus, UniProt Q91WG0)", "T3 sequence (Q91WG0 27-561)": "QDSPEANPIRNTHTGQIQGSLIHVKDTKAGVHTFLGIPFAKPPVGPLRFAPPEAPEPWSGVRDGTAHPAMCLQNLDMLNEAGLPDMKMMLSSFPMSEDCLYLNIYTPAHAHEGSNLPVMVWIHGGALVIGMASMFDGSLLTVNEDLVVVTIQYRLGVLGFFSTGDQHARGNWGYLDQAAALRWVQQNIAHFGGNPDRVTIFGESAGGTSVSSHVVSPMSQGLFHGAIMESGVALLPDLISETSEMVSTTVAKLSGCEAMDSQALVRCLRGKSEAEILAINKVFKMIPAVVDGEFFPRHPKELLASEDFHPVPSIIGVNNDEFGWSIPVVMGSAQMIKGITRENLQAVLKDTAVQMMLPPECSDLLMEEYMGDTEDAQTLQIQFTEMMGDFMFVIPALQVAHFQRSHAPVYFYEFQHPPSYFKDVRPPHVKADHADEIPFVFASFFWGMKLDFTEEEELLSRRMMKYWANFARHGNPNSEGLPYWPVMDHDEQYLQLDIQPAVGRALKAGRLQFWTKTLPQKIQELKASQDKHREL", "conditions": "1 nM Orlistat; cited from earlier work"}, "[5]": {"molecular_target": "T4, mouse ces2e (Mus musculus, UniProt Q8BK48)", "T4 sequence (Q8BK48 27-559)": "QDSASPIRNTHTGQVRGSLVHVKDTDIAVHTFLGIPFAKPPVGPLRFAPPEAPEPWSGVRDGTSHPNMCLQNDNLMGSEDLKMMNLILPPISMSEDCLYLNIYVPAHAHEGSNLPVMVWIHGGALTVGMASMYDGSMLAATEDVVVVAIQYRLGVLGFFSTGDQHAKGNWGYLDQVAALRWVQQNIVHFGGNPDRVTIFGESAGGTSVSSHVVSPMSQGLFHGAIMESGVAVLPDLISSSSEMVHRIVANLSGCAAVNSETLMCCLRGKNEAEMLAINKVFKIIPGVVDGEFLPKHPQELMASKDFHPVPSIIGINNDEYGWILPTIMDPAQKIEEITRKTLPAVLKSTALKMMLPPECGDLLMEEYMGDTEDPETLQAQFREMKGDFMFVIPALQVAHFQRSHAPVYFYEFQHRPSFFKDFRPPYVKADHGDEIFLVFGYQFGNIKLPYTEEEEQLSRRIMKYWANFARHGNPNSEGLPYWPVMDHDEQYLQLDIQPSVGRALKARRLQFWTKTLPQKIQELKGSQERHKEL", "conditions": "1 nM Orlistat; cited from earlier work"}, "[6]": {"molecular_target": "T5, ces1d (Mus musculus, UniProt Q8VCT4)", "T5 sequence (Q8VCT4 19-565)": "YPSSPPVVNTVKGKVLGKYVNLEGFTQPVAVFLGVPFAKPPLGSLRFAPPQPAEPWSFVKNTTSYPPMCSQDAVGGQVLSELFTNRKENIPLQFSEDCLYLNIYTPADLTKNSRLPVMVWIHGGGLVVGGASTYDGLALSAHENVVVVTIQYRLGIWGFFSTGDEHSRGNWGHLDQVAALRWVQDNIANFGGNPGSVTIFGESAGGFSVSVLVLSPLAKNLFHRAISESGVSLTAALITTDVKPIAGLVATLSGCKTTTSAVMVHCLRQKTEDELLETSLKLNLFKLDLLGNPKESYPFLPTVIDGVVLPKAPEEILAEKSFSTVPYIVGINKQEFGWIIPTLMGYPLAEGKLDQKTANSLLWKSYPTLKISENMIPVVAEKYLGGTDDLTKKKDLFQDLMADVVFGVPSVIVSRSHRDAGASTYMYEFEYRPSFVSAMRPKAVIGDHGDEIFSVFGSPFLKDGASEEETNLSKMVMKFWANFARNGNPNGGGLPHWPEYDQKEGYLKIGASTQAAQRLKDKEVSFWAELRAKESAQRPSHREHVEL", "conditions": "1 nM Orlistat; cited from earlier work"}, "[7]": {"molecular_target": "T6, rat ces1d (Rattus norvegicus, UniProt P16303)", "T6 sequence (P16303 19-565)": "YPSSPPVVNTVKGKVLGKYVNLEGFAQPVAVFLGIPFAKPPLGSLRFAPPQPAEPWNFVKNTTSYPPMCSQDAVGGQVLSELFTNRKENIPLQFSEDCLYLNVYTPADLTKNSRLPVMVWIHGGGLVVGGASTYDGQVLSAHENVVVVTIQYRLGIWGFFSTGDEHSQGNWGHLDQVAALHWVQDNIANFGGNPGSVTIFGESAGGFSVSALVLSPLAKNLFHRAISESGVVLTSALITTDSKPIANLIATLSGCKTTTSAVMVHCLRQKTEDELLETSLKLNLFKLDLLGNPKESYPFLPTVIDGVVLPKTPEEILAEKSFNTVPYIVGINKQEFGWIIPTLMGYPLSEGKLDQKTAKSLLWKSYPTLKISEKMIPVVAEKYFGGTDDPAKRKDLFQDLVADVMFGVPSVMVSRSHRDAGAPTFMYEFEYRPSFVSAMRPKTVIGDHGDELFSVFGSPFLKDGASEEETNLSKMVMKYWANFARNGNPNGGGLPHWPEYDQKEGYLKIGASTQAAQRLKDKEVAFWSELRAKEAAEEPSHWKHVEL", "conditions": "major form of rat liver CES; cited from earlier work"}, "[8]": {"molecular_target": "T7, rat ces1e (Rattus norvegicus, UniProt Q63108)", "T7 sequence (Q63108 19-561)": "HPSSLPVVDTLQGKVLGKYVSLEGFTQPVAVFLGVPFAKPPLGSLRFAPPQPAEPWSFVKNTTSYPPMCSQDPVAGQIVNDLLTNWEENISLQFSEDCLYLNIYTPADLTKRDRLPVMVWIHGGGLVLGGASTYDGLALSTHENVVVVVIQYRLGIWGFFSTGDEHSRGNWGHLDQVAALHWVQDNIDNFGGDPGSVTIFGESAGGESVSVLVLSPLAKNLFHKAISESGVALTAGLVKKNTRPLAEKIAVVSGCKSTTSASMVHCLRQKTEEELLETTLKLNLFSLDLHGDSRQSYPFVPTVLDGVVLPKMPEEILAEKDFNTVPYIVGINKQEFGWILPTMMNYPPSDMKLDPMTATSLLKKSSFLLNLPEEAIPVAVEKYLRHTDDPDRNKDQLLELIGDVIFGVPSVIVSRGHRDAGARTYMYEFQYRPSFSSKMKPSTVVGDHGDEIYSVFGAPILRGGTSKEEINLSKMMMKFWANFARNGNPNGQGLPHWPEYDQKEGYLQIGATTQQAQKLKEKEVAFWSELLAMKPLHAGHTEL", "conditions": "major form of rat liver CES; cited from earlier work"}, "[9]": {"molecular_target": "T1, CES2", "assay": "Cellular inhibition of CES2 in LS180 cells, lysates tested by native gel electrophoresis and Western blotting", "type": "cell-based", "parameters": "endogenous in cells; host or cells: LS180", "experimental": "The cellular activity of Orlistat was examined on the inhibition of CES2 within cells. To test this possibility, LS180 cells (a colon adenocarcinoma line) were treated with orlistat for 1-24 h, washed extensively to remove free Orlistat and lysed by sonication. The lysates were then tested for the hydrolytic activity by native gel electrophoresis. […] We next tested whether the less inhibition by prolonged incubation was due to increased expression of CES2. Western blotting was performed with the same gel stained for activity. As predicated, prolonged incubation increased CES2 expression (FIG. 3B). These findings established that regeneration of CES2 requires new synthesis of CES2."}, "[10]": {"molecular_target": "T1, CES2", "assay": "Irreversibility: human liver microsomes incubated with Orlistat, native gel electrophoresis, activity staining (CES2)", "type": "biochemical", "parameters": "from tissue; host or cells: human liver microsomes", "experimental": "It was tested whether the inhibition involves covalent interactions between Orlistat and CES2. Microsomes from human livers (CES1 and CES2) were incubated with Orlistat, resolved by native gel electrophoresis to remove free Orlistat, and stained for the remaining activity."}}, "data": [{"smiles": "CCCCCCCCCCC[C@@H](C[C@@H]1OC(=O)[C@H]1CCCCCC)OC(=O)[C@H](CC(C)C)NC=O", "note": "[Orlistat]", "values": [{"measurement": "inhibition of CES2", "setting": "[1]", "result": 75, "unit": "%"}, {"measurement": "inhibition at 0.1 µM", "setting": "[2]; 100 nM orlistat", "result": "~30", "unit": "%"}, {"measurement": "inhibition of CES1", "setting": "[2]; Orlistat at 1 nM", "result": "no inhibition"}, {"measurement": "reduction of cell viability by PPD (carbamate) in the presence of Orlistat", "setting": "[3]; PPD plus Orlistat", "result": "significantly reversed"}, {"measurement": "reduction of the cell killing activity of PPD", "setting": "[3]; pretreatment with Orlistat", "result": "≤ 60", "unit": "%"}, {"measurement": "cell viability", "setting": "[3]; treatment with substance alone", "result": "no changes"}, {"measurement": "inhibition of mouse ces2c", "setting": "[4]", "result": 90, "unit": "%"}, {"measurement": "inhibition of mouse ces2e", "setting": "[5]", "result": 55, "unit": "%"}, {"measurement": "inhibition of ces1d", "setting": "[6]", "result": 12, "unit": "%"}, {"measurement": "sensitivity of rat ces1d to Orlistat", "setting": "[7]", "result": "resistant"}, {"measurement": "sensitivity of rat ces1e to Orlistat", "setting": "[8]", "result": "resistant"}, {"measurement": "inhibition of CES2 activity in cells", "setting": "[9]; 1-h incubation", "result": "~80", "unit": "%"}, {"measurement": "CES2 expression (Western blotting)", "setting": "[9]; prolonged incubation 24 h", "result": "increased"}, {"measurement": "inhibition of CES2 activity in cells", "setting": "[9]; prolonged incubation 24 h", "result": "less effective"}, {"measurement": "inhibition of CES2 activity in cells", "setting": "[9]; treated for 6 h", "result": "Comparable inhibition"}, {"measurement": "remaining activity of CES2 upon incubation with Orlistat", "setting": "[10]; human liver microsomes, free Orlistat removed by native gel electrophoresis", "result": "profoundly reduced"}, {"measurement": "type of inhibition of CES2", "setting": "[10]; inhibition persists after removal of Orlistat by electrophoresis", "result": "irreversible inhibitor"}]}]}
